US20240060040A1, “METHODS FOR GENERATING INNER EAR HAIR CELLS” (Ear Science Institute Australia, priority 2020, published 2024)

Tests used:
Type in all cases: cell-based
[1] = system: Human iPSCs derived inner ear organoid; assay: SOX2 and Tuj1 expression by confocal microscopy; details: day 33-60; FIG. 18
Procedure: (§1) FIG. 1 illustrates methods for generating inner ear hair cells from the induced pluripotent stem cells. The inventor added a combination of agents and inhibitors at developmental stages of the inner ear organoid culture to produce the invention. In particular: • (i) ROCK inhibitor (Y-27632) is added to iPSC in suspension culture to promote the formation of three-dimensional embryoid bodies for about 3 days. • (ii) TGF-β inhibitor (SB-431542) is added at low concentration of FGF to drive the development of non-neural ectoderm in days 0 to 3. • (iii) The cultures are then transitioned to medium containing a high concentration of FGF and BMP inhibitor (LDN-193189) during days 4-7, which drives development of the early pre-otic placodal epithelium/pre-placodal ectoderm. • (iv) Next, Wnt agonist (CHIR-99021) is added to stimulate development of otic placode from days 8-11, otic pit formation from days 12-14 and otic prosensory vesicles from days 15-17. • (v) From days 18-32, hedgehog signalling inhibitor (CYC, GANT58 or GANT61) is added to promote the formation of sensory epithelium vesicles, and continued culture under these conditions results in the formation of sensory hair cells with neural innervation from day 33 onwards.
To identify the development of sensory hair cells of inner ear organoids at Day 33-60, the SOX2 and Tuj1 expression in organoids was observed by using confocal microscopy. The results are presented in FIG. 18, which compares organoids developed using (a) the method of Example 1 with cyclopamine (Example 2), and (b) the method of Example 1 with GANT58 (Example 3) and GANT61 (Example 4).

[2] = system: Human iPSCs derived inner ear organoid; assay: Single cell RNA sequencing and TaqMan qRT-PCR cell fate analysis; details: for inner ear hair cell differentiation in comparison with organoids developed using the Koehler method: RNA sequencing and TaqMan qRT-PCR, FIGS. 15 and 16; for hair cell and neuronal markers by single cell RNA sequencing: organoids at Day 60, Koehler method ~57.88%
Procedure: FIG. 1 illustrates methods for generating inner ear hair cells from the induced pluripotent stem cells. The inventor added a combination of agents and inhibitors at developmental stages of the inner ear organoid culture to produce the invention.
To verify the hair cell marker genes in RNAseq transcriptome analysis, quantitative TaqMan® real-time polymerase chain reaction (qRT-PCR) in inner ear organoids was performed to identify the level of hair cell gene expression. FIG. 15 illustrates sensory hair cell-specific gene expression analysis on human iPSCs derived inner ear organoid at Day 60 by single cell RNA sequencing transcriptome analysis. FIG. 16 illustrates otic epithelial-specific gene expression in inner ear organoids at Day 20 and inner ear sensory cell-specific gene expression in inner ear organoids at Day 60 by TaqMan® qRT-PCR analyses. The presence of MyoVI represents inner ear hair cell differentiation.

[3] = system: Human iPSCs derived inner ear organoid; assay: ECAD and PAX2 expression by confocal microscopy (ectodermal cell fate); details: day 20; treated aggregates, compared with Koehler method
Procedure: as §1
To identify the ectodermal cell fate of inner ear organoids at Day 20-40, the ECAD and PAX2 expression in organoids was observed by using confocal microscopy, comparing organoids developed using (a) Koehler's method without Hh inhibitors, (b) the method of Example 1 with cyclopamine as the SHH inhibitor (Example 2), (c) the method of Example 1 with GANT58 as the SHH inhibitor (Example 3) and (d) the method of Example 1 with GANT61 as the SHH inhibitor (Example 4). […] The ectodermal cell fate of the inner ear organoids developed better with the SHH inhibitors compared with the Koehler method. […] The formation of ectodermal cell appeared to be continuous, beginning on day 7 until approximately day 20-40.

[4] = system: Human iPSCs derived inner ear organoid; assay: MyosinVIIa and Tuj1 immunostaining with confocal imaging (sensory hair cells and nerve innervation); details: for sensory hair cells and supporting cells in organoids / sensory hair cells and neuronal cells in organoids: day 33-60; for sensory hair cells and supporting cells in organoids: FIG. 14; for sensory hair cells and neuronal cells in organoids: FIG. 17; for inner ear hair cells and nerve innervation detected: inhibitor 1 μM from day 18, removed day 33, 10% Matrigel
Procedure: as §1
On day 18, the SHH inhibitor cyclopamine (CAT 239803 from Merck Millipore) was added to the cell culture to reach a final concentration of 1 μM. Matrigel® was also added to the cell culture to reach a concentration of 10%. The cells were cultured in organoid maturation medium until day 33.
On day 33, the cyclopamine was removed from the medium by washing and the droplet aggregates were remained in the cell culture containing 10% Matrigel®.
The cells were then cultured for up to 200 days in the Organoid Maturation Medium containing 10% Matrigel®. 200 μL of medium was changed daily for each well. The cells were cultured until 60-100 days, until an examination of the cell's morphology determined maturation. The viable, medium size and round 3D shape organoids with inner ear sensory cell gene expression markers were selected for analysis.
Inner ear hair cells and nerve innervation was detected after Day 35. The presence and number of inner ear hair cells was detected by immunostaining and capture with confocal imaging.
(§2) To identify the development of sensory hair cells of inner ear organoids at Day 33-60, the MyosinVIIa and Tuj1 expression in organoids was observed by using confocal microscopy. The results are presented in FIG. 14, which compares organoids developed using (a) the method of Example 1 with cyclopamine (Example 2), and (b) the method of Example 1 with GANT58 (Example 2). […] An opaque outer cell mass is indicative of complete re-organization, which was found in organoids developed using each of the SHH inhibitors. In comparison, less translucent epithelium indicative of incomplete or partial re-organization was found in organoids developed using the Koehler method. Sensory hair cell epithelium through the aggregate surface was found in organoids developed using each SHH inhibitor.
as §2, with “MyoVIIa” for “MyosinVIIa”, “17,” for “14,”, “3) and GANT61 (Example 4).” for “2).”, “inhibitors.” for “inhibitors. In comparison, less translucent epithelium indicative of incomplete or partial re-organization was found in organoids developed using the Koehler method.”

Compound	supporting cells and neuronal cells in organoids [1]	inner ear hair cell differentiation in comparison with organoids developed using the Koehler method [2]	hair cell and neuronal markers by single cell RNA sequencing [2] [%]	abundance of ECAD/PAX2 positive vesicles with a luminal diameter greater than 50 μm [3]	sensory hair cells and supporting cells in organoids [4]	sensory hair cells and neuronal cells in organoids [4]	inner ear hair cells and nerve innervation detected [4] [days]
CC1=C2C[C@H]3[C@@H](CC=C4C[C@@H](O)CC[C@@]43C)[C@@H]2CC[C@]12O[C@@H]1C[C@H](C)CN[C@H]1[C@H]2C [cyclopamine]	present	greater inner ear hair cell differentiation	~74.48	higher abundance	present	present	> 35
CN(C)c1ccccc1CN1CCCN(Cc2ccccc2N(C)C)C1c1ccncc1 [GANT61]	present	greater inner ear hair cell differentiation		higher abundance		present	> 35
c1cc(-c2sc(-c3ccncc3)c(-c3ccncc3)c2-c2ccncc2)ccn1 [GANT58]	present	greater inner ear hair cell differentiation	~91.88	higher abundance	present	present	> 35
